Test results from patent publication US20030096015A1, “Cytogenic/nucleogenic healing” (priority 1997, published 2003).

System: multiple of infections (MOI)

OC[C@H]1O[C@@](CO)(O[C@H]2O[C@H](CO)[C@@H](O)[C@H](O)[C@H]2O)[C@@H](O)[C@@H]1O [5% Sucrose, sucrose]
bacterial and viral growth / resistance to proteolysis by MOI (medium streaked with mixed MOI culture): bacterial activity and viral replication at exponential rate | Comparative Degree of Resistance (resistance to proteolysis by MOI, ambient temperature (24° C.)): 5.0 h | Relative Resistance (resistance to proteolysis by MOI, ambient temperature (24° C.), 5% Sucrose = 1.0): 1.0
